Results from US11053219B2, “Substituted pyridines as TYK2 inhibitors” (FronThera U.S. Pharmaceuticals LLC, priority 2018, dated 2021).

Columns and labels:
TYK2 (JH2 domain) = TYK2 (JH2 domain) (Homo sapiens (Human), UniProt P29597); assay: TYK2 JH2 domain binding assay (DiscoverX KINOMEscan); conditions: 11-point 3-fold dilution, duplicate
[1] = tested on: INFα induced pSTAT5 in human PBMC; assay: INFα induced pSTAT5 in human PBMC; type: cell-based; conditions: human PBMC, INFα 5000 units/ml; read-out: p-STAT5 IC50
JAK1 (JH2 domain) = JAK1 (JH2 domain) (Homo sapiens (Human), UniProt P23458); assay: JAK1 JH2 domain binding assay (KINOMEscan); conditions: KINOMEscan; read-out: JAK1 (JH2 domain) binding Kd
JAK2 (JH1 domain) = JAK2 (JH1 domain) (Homo sapiens (Human), UniProt O60674); assay: JAK2 JH1 domain binding assay (KINOMEscan)
[2] = tested on: GM-CSF-induced pSTAT5 in human PBMC; assay: GM-CSF-induced pSTAT5 in human PBMC; type: cell-based; conditions: GM-CSF 10 ng/ml
Experimental: (§1) Fresh Human PBMCs were resuspended in RPMI 1640 medium with 10% FBS. Cells were seeded in a round bottom 96-well plate at the concentration of 200,000 cells/well. A 10-point dilution series of test compound (top dose 10 uM, 1:5 dilution) was added to the well using the liquid dispenser (Tecan D300e) and incubated for 1 hour at 37 C. Then human IL-12 recombinant protein (R&D Systems) was added to the well at the final concentration of 10 ng/ml and incubated for 15 minutes at 37 C. Cell lysates were prepared and analyzed by Phospho STAT4 (Tyr693) Kit (Meso Scale Discovery) following manufacturer's protocol.
(§2) For calculation of the inhibition rate, the relative pSTAT4 signal of each well=pSTAT4 signal of each well−the average pSTAT4 signal of baseline. The inhibition %=(the average pSTAT4 signal of IL-12 treatment wells−the relative of pSTAT4 signal in each compound containing well)/the average pSTAT4 signal of IL-12 treatment wells*100%
(§3) The curve was plotted as the inhibition % (y-axis) vs. compounds concentration (x-axis) and was fitted with log(inhibitor) vs. normalized response—Variable slope by GraphPad Prism7.0. Control is BMS-986165:
(§4) Similar to the method for IL-12 induced pSTAT4 in human PBMC described above, these assays were performed to check if test compounds have cross-activity to JAK1. JAK2 and JAK3 pathways in human PBMC. The procedure is as described with change of stimuli to 10 ng/ml of GM-CSF or 20 ng/ml of IL-2.

[3] = tested on: IL-2-induced pSTAT5 in human PBMC; assay: IL-2-induced pSTAT5 in human PBMC; type: cell-based; conditions: IL-2 20 ng/ml
Experimental: as §1, §2, §3, §4

[4] = Pharmacokinetic study in Sprague Dawley rats; type: in vivo; conditions: rat, plasma; for Vd: read-out: Vdss
Experimental: (§5) The pharmacokinetics of test compounds were evaluated in male C57BL/6 mice, Sprague Dawley rats, Beagle dogs, and cynomolgus monkeys when administered via oral gavage and IV injection. The animals were fasted overnight before administration. Plasma samples were collected predose and at 0.5, 1, 3, 6, 9, 12, and 24 hours postdose. The samples were analyzed by LC/MS/MS and the concentration of test compound at each timepoint was determined by linear regression. Pharmacokinetic parameters were calculated from the plasma concentrations using Pheonix WinNonlin.

[5] = Pharmacokinetic study in Beagle dogs; type: in vivo; conditions: dog, plasma; for Vd: read-out: Vdss
Experimental: as §5

[6] = Pharmacokinetic study in C57BL/6 mice; type: in vivo; design: AUC: unit not given here
Experimental: as §5

[7] = Pharmacokinetic study in cynomolgus monkeys; type: in vivo; conditions: cynomolgus monkey, plasma
Experimental: as §5

[8] = Oral (5 mg/kg), read-out: C0 or Cmax (Cmax)
[9] = iv, I.V. (1 mg/kg), read-out: C0 or Cmax (C0)
[10] = Oral (2 mg/kg), read-out: C0 or Cmax (Cmax)
[11] = male, mouse, plasma, Oral (10 mg/kg)
[12] = male, mouse, plasma, iv, I.V. (2 mg/kg)
[13] = Oral (2 mg/kg), NA: no detectable

JAK2 (JH1 domain), sequence (O60674 849-1124): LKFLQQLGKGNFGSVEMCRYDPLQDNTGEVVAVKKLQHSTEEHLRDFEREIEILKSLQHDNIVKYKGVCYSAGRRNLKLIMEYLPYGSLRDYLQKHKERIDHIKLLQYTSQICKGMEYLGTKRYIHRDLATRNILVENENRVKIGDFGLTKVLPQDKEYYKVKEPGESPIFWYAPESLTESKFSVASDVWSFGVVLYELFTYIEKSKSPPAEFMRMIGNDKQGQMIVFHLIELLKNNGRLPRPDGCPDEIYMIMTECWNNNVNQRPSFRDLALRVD
TYK2 (JH2 domain), sequence (P29597 589-875): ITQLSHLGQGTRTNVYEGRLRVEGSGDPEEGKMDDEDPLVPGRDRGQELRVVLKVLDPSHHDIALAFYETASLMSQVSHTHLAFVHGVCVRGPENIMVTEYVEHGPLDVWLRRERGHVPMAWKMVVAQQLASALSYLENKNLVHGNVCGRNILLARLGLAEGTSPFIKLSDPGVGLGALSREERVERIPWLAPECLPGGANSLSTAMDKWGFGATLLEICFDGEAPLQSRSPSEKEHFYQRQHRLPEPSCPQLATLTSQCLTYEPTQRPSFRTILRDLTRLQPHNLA
JAK1 (JH2 domain), sequence (P23458 583-855): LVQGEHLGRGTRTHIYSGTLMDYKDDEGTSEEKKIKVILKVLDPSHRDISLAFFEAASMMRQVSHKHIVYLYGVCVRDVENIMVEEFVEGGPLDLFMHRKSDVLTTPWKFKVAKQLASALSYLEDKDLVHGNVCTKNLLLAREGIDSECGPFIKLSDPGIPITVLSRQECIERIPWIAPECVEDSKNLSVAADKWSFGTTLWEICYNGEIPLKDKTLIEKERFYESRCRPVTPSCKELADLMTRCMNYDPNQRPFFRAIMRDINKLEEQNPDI

| Kd (TYK2 (JH2 domain)) | Kd (JAK1 (JH2 domain)) | Kd (JAK2 (JH1 domain)) | AUC ([4]; Oral (5 mg/kg)) | Tmax ([4]; Oral (5 mg/kg)) | bioavailability ([4]; Oral (5 mg/kg)) | half-life ([4]; Oral (5 mg/kg)) | Cmax [4, 8] | AUC ([4]; iv, I.V. (1 mg/kg)) | clearance ([4]; iv, I.V. (1 mg/kg)) | half-life ([4]; iv, I.V. (1 mg/kg)) | Cmax [4, 9] | Vd ([4]; iv, I.V. (1 mg/kg)) | AUC ([5]; Oral (2 mg/kg)) | Tmax ([5]; Oral (2 mg/kg)) | bioavailability ([5]; Oral (2 mg/kg)) | half-life ([5]; Oral (2 mg/kg)) | Structure (SMILES) | IC50 [1] | IC50 [2] | IC50 [3] | further results |
| --- | --- | --- | --- | --- | --- | --- | --- | --- | --- | --- | --- | --- | --- | --- | --- | --- | --- | --- | --- | --- | --- |
| ≤ 1 nM | < 100 nM | > 10000 nM | 650 ± 34 ng·h/mL | 1.33 ± 0.58 h | 18.4 ± 1% | 1.66 ± 0.37 h | 140 ± 32 ng/mL | 705 ± 140 ng·h/mL | 23.3 ± 4.9 mL/min/kg | 1.74 ± 0.2 h | 414 ± 56 ng/mL | 3.27 ± 0.87 L/kg | 67.6 ± 25 ng·h/mL | 1.33 ± 0.6 h | 10.7 ± 3.9% | 1.36 ± 0.05 h | [2H]C([2H])([2H])CC(=O)c1cnc(Nc2cccc(C#N)n2)cc1Nc1nccc(-c2ncn(C([2H])([2H])[2H])n2)c1OC [Example 199] | < 100 nM | 1000 to 10000 nM | 100 to 1000 nM | Cmax [5, 10]: 23.4 ± 4 ng/mL; AUC ([5]; iv, I.V. (1 mg/kg)): 315 ± 188 ng·h/mL; clearance ([5]; iv, I.V. (1 mg/kg)): 63.2 ± 30 mL/min/kg; half-life ([5]; iv, I.V. (1 mg/kg)): 1.78 ± 0.59 h; Cmax [5, 9]: 334 ± 96 ng/mL; Vd ([5]; iv, I.V. (1 mg/kg)): 5.62 ± 1.13 L/kg |
| ≤ 1 nM | < 100 nM | 100 to 1000 nM | 210 ± 60 ng·h/mL | 4 ± 2 h | 8.35 ± 2.4% | 1.29 ± 0.24 h | 50.1 ± 11 ng/mL | 504 ± 58 ng·h/mL | 33.1 ± 4 mL/min/kg | 0.323 ± 0.035 h | 1980 ± 101 ng/mL | 0.653 ± 0.03 L/kg | 555 ± 154 ng·h/mL | 1 h | 55 ± 15% | 1.59 ± 0.15 h | [2H]C([2H])([2H])CC(=O)c1cnc(Nc2ccc(C(C)(C)O)c(F)n2)cc1Nc1cccc(-c2ncn(C([2H])([2H])[2H])n2)c1OC [Example 202] | < 100 nM | 100 to 1000 nM | 100 to 1000 nM | AUC ([6]; I.V. (2 mg/kg)): 1911; AUC ([6]; Oral (10 mg/kg)): 6395; Tmax [6, 11]: 0.5 h; bioavailability [6, 11]: 66.6%; half-life [6, 11]: 3.27 h; Cmax ([6]; male, mouse, plasma, Oral (10 mg/kg), read-out: C0 or Cmax (Cmax)): 1900 ng/mL; clearance [6, 12]: 17.3 mL/min/kg; half-life [6, 12]: 0.97 h; Cmax ([6]; male, mouse, plasma, iv, I.V. (2 mg/kg), read-out: C0 or Cmax (C0)): 3340 ng/mL; Vd ([6]; male, mouse, plasma, iv, I.V. (2 mg/kg), read-out: Vdss): 0.785 L/kg; Cmax [5, 10]: 156 ± 53 ng/mL; AUC ([5]; iv, I.V. (1 mg/kg)): 504 ± 49 ng·h/mL; clearance ([5]; iv, I.V. (1 mg/kg)): 32.7 ± 3.1 mL/min/kg; half-life ([5]; iv, I.V. (1 mg/kg)): 1.74 ± 0.28 h; Cmax [5, 9]: 469 ± 255 ng/mL; Vd ([5]; iv, I.V. (1 mg/kg)): 4.21 ± 0.19 L/kg |
| ≤ 1 nM | < 100 nM | > 10000 nM | 1190 ± 53 ng·h/mL | 1 ± 0.87 h | 16.9 ± 0.76% | 2.85 ± 2.8 h | 261 ± 35 ng/mL | 1400 ± 29 ng·h/mL | 11.8 ± 0.22 mL/min/kg | 1.22 ± 0.12 h | 1200 ± 70 ng/mL | 1.1 ± 0.065 L/kg | 253 ± 48 ng·h/mL | 1.67 ± 0.58 h | 54 ± 10% | 1.42 ± 0.24 h | [2H]C([2H])([2H])CC(=O)c1cnc(Nc2cccc(C#N)n2)cc1Nc1cccc(-c2ncn(C([2H])([2H])[2H])n2)c1OC [Example 198] | < 100 nM | 1000 to 10000 nM | 100 to 1000 nM | Cmax [5, 10]: 68.8 ± 18 ng/mL; AUC ([5]; iv, I.V. (1 mg/kg)): 234 ± 94 ng·h/mL; clearance ([5]; iv, I.V. (1 mg/kg)): 68.6 ± 28 mL/min/kg; half-life ([5]; iv, I.V. (1 mg/kg)): 4.29 ± 1.25 h; Cmax [5, 9]: 182 ± 47.6 ng/mL; Vd ([5]; iv, I.V. (1 mg/kg)): 23.1 ± 4.59 L/kg; AUC [7, 13]: 1230 ± 435 ng·h/mL; Tmax [7, 13]: 4 h; bioavailability [7, 13]: 59.4 ± 21.1%; half-life [7, 13]: 1.28 ± 0.18 h; Cmax ([7]; Oral (2 mg/kg), NA: no detectable, read-out: C0 or Cmax (Cmax)): 246 ± 124 ng/mL; AUC ([7]; iv, I.V. (1 mg/kg)): 1030 ± 159 ng·h/mL; clearance ([7]; iv, I.V. (1 mg/kg)): 16.1 ± 2.4 mL/min/kg; half-life ([7]; iv, I.V. (1 mg/kg)): 1.45 ± 0.22 h; Cmax [7, 9]: 667 ± 82 ng/mL; Vd ([7]; iv, I.V. (1 mg/kg), read-out: Vdss): 1.94 ± 0.03 L/kg |
